Drawing on the supplement of paper PMC10307832, this text covers relative viability for 36 cell lines.

Compound in this assay: CNC(=O)c1cc(Oc2ccc(NC(=O)Nc3ccc(Cl)c(C(F)(F)F)c3)cc2)ccn1 [Sorafenib] + O=C(c1cc(Cc2n[nH]c(=O)c3ccccc23)ccc1F)N1CCN(C(=O)C2CC2)CC1 [Olaparib] (partner 8 µM)
Put plainly: relative viability (nuclei count vs DMSO), 5 days (fraction); higher = more cells survive. The essentials: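 Lung cancer cell lines in 1536-well plates got either a single drug or a fixed anchor-drug dose together with five library-drug doses (not always all listed) in √10 steps, by pin tool, on the day after seeding. Nuclei were counted after 5 days, and relative viability is the treated-to-vehicle ratio of nuclei counts. Values are medians of duplicate plates.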

For the cell line NCI-H838, the relative viability (first compound 0.08 µM) turned out to be 0.776, the relative viability (first compound 0.253 µM) was determined as 0.744, the relative viability (first compound 2.53 µM) stood at 0.735 and the relative viability (first compound 8 µM) is 0.215.
Consider NCI-H596, for which the relative viability by setting is: (first compound 0.08 µM) 0.773; (first compound 0.253 µM) 0.73; (first compound 2.53 µM) 0.751; (first compound 8 µM) 0.79.
For HOP-62, the relative viability runs as follows: (first compound 0.08 µM) 0.28; (first compound 0.253 µM) 0.389; (first compound 2.53 µM) 0.405; (first compound 8 µM) 0.249.
Turning to NCI-H2126, the relative viability by setting is: (first compound 0.08 µM) 0.935; (first compound 0.253 µM) 0.851; (first compound 2.53 µM) 0.96; (first compound 8 µM) 0.913.
For NCI-H2023, the relative viability turned out to be 0.45 (first compound 0.08 µM), 0.477 (first compound 0.253 µM), 0.465 (first compound 2.53 µM) and 0.115 (first compound 8 µM).
EKVX: the relative viability reads like this: (first compound 0.08 µM) 0.91; (first compound 0.253 µM) 0.76; (first compound 2.53 µM) 0.796; (first compound 8 µM) 0.682.
In the case of COR-L 105, the relative viability (first compound 0.08 µM) was determined as 0.697, the relative viability (first compound 0.253 µM) was determined as 0.72, the relative viability (first compound 2.53 µM) turned out to be 0.78 and the relative viability (first compound 8 µM) was determined as 0.718.
The corresponding values for NCI-H322M are 0.903, 0.66, 0.678 and 0.918.
As for NCI-H1793, the relative viability turned out to be 1.05 (first compound 0.08 µM), 0.836 (first compound 0.253 µM), 0.84 (first compound 2.53 µM) and 0.661 (first compound 8 µM).
As to PC-14, the relative viability (first compound 0.08 µM) came to 0.323, the relative viability (first compound 0.253 µM) is 0.315, the relative viability (first compound 2.53 µM) is 0.238 and the relative viability (first compound 8 µM) came out at 0.105.
Regarding NCI-H358, the relative viability worked out at 0.551 (first compound 0.08 µM), 0.491 (first compound 0.253 µM), 0.368 (first compound 2.53 µM) and 0.375 (first compound 8 µM).
For LXF-289, in that order: 1.03, 1.04, 1.01 and 0.96.
With HCC-366, the relative viability came out at 0.354 (first compound 0.08 µM), 0.319 (first compound 0.253 µM), 0.287 (first compound 2.53 µM) and 0.268 (first compound 8 µM).
The corresponding values for HARA are 0.868, 0.794, 0.391 and 0.478.
For NCI-H2087, in that order: 0.717, 0.566, 0.501 and 0.116.
Consider NCI-H520, for which the relative viability is, setting by setting: (first compound 0.08 µM) 0.356; (first compound 0.253 µM) 0.281; (first compound 2.53 µM) 0.313; (first compound 8 µM) 0.126.
The corresponding values for NCI-H441 are 0.593, 0.5, 0.455 and 0.308.
For NCI-H1651, in that order: 0.18, 0.174, 0.187 and 0.178.
The corresponding values for NCI-H1755 are 0.912, 0.797, 0.856 and 0.748.
As to PC-3 [JPC-3], the relative viability came to 1.18 (first compound 0.08 µM), 1.12 (first compound 0.253 µM), 1.18 (first compound 2.53 µM) and 0.944 (first compound 8 µM).
Consider UMC-11, for which the relative viability reads like this: (first compound 0.08 µM) 0.39; (first compound 0.253 µM) 0.375; (first compound 2.53 µM) 0.38; (first compound 8 µM) 0.15.
Turning to ABC-1, the relative viability was 0.565 (first compound 0.253 µM), 0.693 (first compound 2.53 µM) and 0.4 (first compound 8 µM).
Take SW 1573: the relative viability runs as follows: (first compound 0.08 µM) 0.47; (first compound 0.253 µM) 0.518; (first compound 2.53 µM) 0.437; (first compound 8 µM) 0.132.
For SK-LU-1, in that order: 0.534, 0.361, 0.549 and 0.317.
The corresponding values for COR-L23 are 0.336, 0.372, 0.346 and 0.233.
On to NCI-H1944, for which the relative viability (first compound 0.08 µM) is 0.391, the relative viability (first compound 0.253 µM) came out at 0.379, the relative viability (first compound 2.53 µM) worked out at 0.382 and the relative viability (first compound 8 µM) is 0.35.
For NCI-H1734, in that order: 0.609, 0.541, 0.563 and 0.601.
Consider NCI-H1666, for which the relative viability came to 0.785 (first compound 0.08 µM), 0.765 (first compound 0.253 µM) and 0.721 (first compound 2.53 µM).
SK-MES-1: the relative viability (first compound 0.08 µM) came to 0.664, the relative viability (first compound 0.253 µM) amounted to 0.551, the relative viability (first compound 2.53 µM) worked out at 0.648 and the relative viability (first compound 8 µM) was 0.258.
In the case of EPLC-272H, the relative viability came out at 1.11 (first compound 0.08 µM), 0.838 (first compound 0.253 µM), 1.02 (first compound 2.53 µM) and 0.283 (first compound 8 µM).
For CAL-12T, in that order: 0.81, 0.616, 0.639 and 0.602.
The corresponding values for LCLC-97TM1 are 0.413, 0.324, 0.297 and 0.253.
Turning to NCI-H650, the relative viability stood at 0.377 (first compound 0.08 µM), 0.312 (first compound 0.253 µM), 0.295 (first compound 2.53 µM) and 0.227 (first compound 8 µM).
As for NCI-H1395, the relative viability runs as follows: (first compound 0.08 µM) 0.517; (first compound 2.53 µM) 0.515; (first compound 8 µM) 0.394.
For the cell line HCC-44, the relative viability runs as follows: (first compound 0.08 µM) 0.936; (first compound 0.253 µM) 0.876; (first compound 2.53 µM) 0.92; (first compound 8 µM) 0.953.
On to NCI-H1975, for which the relative viability was 0.936 (first compound 0.08 µM), 0.779 (first compound 0.253 µM), 0.669 (first compound 2.53 µM) and 0.353 (first compound 8 µM).
